Legend:
Format in all cases: cell-based, influenza A virus
Details in all cases: read-out: Cell Protection Assay EC50 ± SD Comp (1)
A/Weiss/43 = system: A/Weiss/43
[1] = system: A/California/07/2009 NYMC X-179A
A/NWS/33 = system: A/NWS/33
A/California/07/2009 = system: A/California/07/2009
A/Georgia/20/2006 = system: A/Georgia/20/2006
A/Uruguay/716/2007 = system: A/Uruguay/716/2007
A/Texas/12/2007 = system: A/Texas/12/2007
A/St. Petersburg/8/2006 = system: A/St. Petersburg/8/2006
A/Nebraska/1/2006 = system: A/Nebraska/1/2006
A/Port Chalmers/1/73 = system: A/Port Chalmers/1/73
A/Virginia/01/2006 = system: A/Virginia/01/2006
A/Texas/48/2009 = system: A/Texas/48/2009
A/Puerto Rico/8/34 = system: A/Puerto Rico/8/34
A/WS/33 = system: A/WS/33
A/Mexico/4108/2009 = system: A/Mexico/4108/2009
A/Wisconsin/67/2005 = system: A/Wisconsin/67/2005

Compound: O=C(O)[C@H]1C2CCC(CC2)C1Nc1nc(-c2c[nH]c3ncc(F)cc23)ncc1F (stereo partly shown) [Compound (1)]
- EC50 (A/Weiss/43): 0.31 ± 0.23 nM
- EC50 [1]: 2.7 ± 1.8 nM
- EC50 (A/NWS/33): 0.73 ± 0.1 nM
- EC50 (A/California/07/2009): 1.8 ± 1.6 nM
- EC50 (A/Georgia/20/2006): 2.6 ± 3.8 nM
- EC50 (A/Uruguay/716/2007): 3.5 ± 5.1 nM
- EC50 (A/Texas/12/2007): 0.65 ± 0.22 nM
- EC50 (A/St. Petersburg/8/2006): 0.88 ± 0.69 nM
- EC50 (A/Nebraska/1/2006): 2.1 ± 1.3 nM
- EC50 (A/Port Chalmers/1/73): 0.54 ± 0.11 nM
- EC50 (A/Virginia/01/2006): 0.42 ± 0.24 nM
- EC50 (A/Texas/48/2009): 2.8 ± 3.2 nM
- EC50 (A/Puerto Rico/8/34): 3.2 ± 1.8 nM
- EC50 (A/WS/33): 3.2 ± 4.3 nM
- EC50 (A/Mexico/4108/2009): 2.7 ± 1.8 nM
- EC50 (A/Wisconsin/67/2005): 1.8 ± 0.24 nM
